Test results reported in patent publication US9919998B2, “Antibacterial agents: Nα-aroyl-N-aryl-phenylalaninamides” (priority 2014, dated 2018).
Converted amounts (≈) assume the structure as drawn.

Experiments:
Type in all cases: cell-based
[1] = test system: Mycobacterium avium ATCC 25291; assay: Microplate Alamar Blue assay (MABA) MIC, M. avium; settings: ATCC25291, M. avium ATCC 25291
Text: (§1) Minimal inhibitory concentrations (MICs) in Mycobacterium tuberculosis H37Rv and Mycobacterium avium ATCC 25291 were quantified using microplate Alamar Blue assays as described (MABA; [Collins, L. & Franzblau, S. (1997) Microplate Alamar Blue assay versus BACTEC 460 system for high-throughput screening of compounds against Mycobacterium tuberculosis and Mycobacterium avium. Antimicrob. Agents Chemother. 41, 1004-1009]).

[2] = test system: Mycobacterium tuberculosis H37Rv; assay: Microplate Alamar Blue assay (MABA) MIC, M. tuberculosis; settings: read-out: MIC Mycobacterium tuberculosis H37Rv
Text: as §1

[3] = test system: Vero E6 ATCC CRL1586 cells; assay: Mammalian-cell cytotoxicity, minimal cytotoxic concentration (CellTiter96)
Method: Minimal cytotoxic concentrations (MCCs) against mammalian cells in culture were determined using Vero E6 ATCC CRL1586 cells and the CellTiter96 assay kit (Promega, Inc.). […]

[4] = test system: Mycobacterium smegmatis ATCC 19420; assay: Broth microdilution MIC, M. smegmatis; settings: Mycolicibacterium smegmatis, ATCC19420, M. smegmatis ATCC 19420; read-out: MIC Mycobacterium smegmatis ATCC 19420
Text: MICs in Mycobacterium smegmatis ATCC 19420 and Mycobacterium smegmatis ATCC 19420 derivatives were quantified using broth microdilution assays as described [Clinical and Laboratory Standards Institute (CLSI/NCCLS) (2009) Methods for Dilution Antimicrobial Susceptibility Tests for Bacteria That Grow Aerobically; Approved Standard, Eighth Edition. CLIS Document M07-A8 (CLIS, Wayne Pa.)].

Row | Compound | MIC [1] | MIC [2] | MCC mammalian cells Vero E6 ATCC CRL1586 [3] | MIC [4]
1 | O=C(NC(Cc1ccccc1)C(=O)Nc1cc(F)ccc1N1CCOCC1)c1ccccc1 (stereo not drawn) [IX-157, N-(1-((5-fluoro-2-morpholinophenyl)amino)-1-oxo-3-phenylpropan-2-yl)benzamide] | 1.56 µg/mL (≈ 3.49 µM) | 0.78 µg/mL (≈ 1.74 µM) | 48 µg/mL | 0.047 µg/mL (≈ 0.105 µM)
2 | O=C(NC(Cc1ccccc1)C(=O)Nc1cc(F)ccc1N1CCOCC1)c1ccccc1F (stereo not drawn) [IX-158, 2-fluoro-N-(1-((5-fluoro-2-morpholinophenyl)amino)-1-oxo-3-phenyl-propan-2-yl)benzamide] | 0.78 µg/mL (≈ 1.68 µM) | 0.78 µg/mL (≈ 1.68 µM) | >100 µg/mL | 0.097 µg/mL (≈ 0.208 µM)
3 | Cc1ccccc1C(=O)NC(Cc1ccccc1)C(=O)Nc1cc(F)ccc1N1CCOCC1 (stereo not drawn) [IX-159, N-(1-((5-fluoro-2-morpholinophenyl)amino)-1-oxo-3-phenylpropan-2-yl)-2-methylbenzamide] | 0.39 µg/mL (≈ 0.845 µM) | 0.39 µg/mL (≈ 0.845 µM) | 10 µg/mL | 0.047 µg/mL (≈ 0.102 µM)
4 | O=C(NC(Cc1ccccc1)C(=O)Nc1cc(F)ccc1N1CCOCC1)c1cccs1 (stereo not drawn) [IX-160, N-(1-((5-fluoro-2-morpholinophenyl)amino)-1-oxo-3-phenylpropan-2-yl)thiophene-2-carboxamide] | 0.78 µg/mL (≈ 1.72 µM) | 0.78 µg/mL (≈ 1.72 µM) | 30 µg/mL | 0.097 µg/mL (≈ 0.214 µM)
5 | O=C(NC(Cc1ccc(O)cc1)C(=O)Nc1cccc2c1OCCO2)c1ccccc1Br (stereo not drawn) [IX-176, 2-bromo-N-(1-((2,3-dihydrobenzo[b][1,4]dioxin-5-yl)amino)-3-(4-hydroxyphenyl)-1-oxopropan-2-yl)benzamide] | 6.25 µg/mL (≈ 12.6 µM) | 6.25 µg/mL (≈ 12.6 µM) | 100.0 µg/mL | 3.1 µg/mL (≈ 6.23 µM)
6 | O=C(NC(Cc1ccccc1)C(=O)Nc1cc(F)ccc1OCF)c1ccccc1F (stereo not drawn) [IX-177, 2-fluoro-N-(1-((5-fluoro-2-(fluoromethoxy)phenyl)amino)-1-oxo-3-phenylpropan-2-yl)benzamide] | 0.78 µg/mL (≈ 1.82 µM) | 0.39 µg/mL (≈ 0.91 µM) | >100 µg/mL | 0.39 µg/mL (≈ 0.91 µM)
7 | CC(=O)Oc1ccc(CC(NC(=O)c2ccccc2F)C(=O)Nc2ccccc2N2CCOCC2)cc1 (stereo not drawn) [IX-180, 4-(2-(2-fluorobenzamido)-3-((2-morpholinophenyl)amino)-3-oxopropyl)phenyl acetate] | 6.25 µg/mL | 1.56 µg/mL | 91 µg/mL | 0.097 µg/mL
8 | CC(=O)Oc1ccc(CC(NC(=O)c2ccccc2C)C(=O)Nc2ccccc2N2CCOCC2)cc1 (stereo not drawn) [IX-181, 4-(2-(2-methylbenzamido)-3-((2-morpholinophenyl)amino)-3-oxopropyl)phenyl acetate] | 3.12 µg/mL | 0.78 µg/mL | 84 µg/mL | 0.097 µg/mL
9 | CC(=O)Oc1ccc(CC(NC(=O)c2cccs2)C(=O)Nc2ccccc2N2CCOCC2)cc1 (stereo not drawn) [IX-182, 4-(3-((2-morpholinophenyl)amino)-3-oxo-2-(thiophene-2-carbox-amido)propyl)phenyl acetate] | 3.12 µg/mL | 0.78 µg/mL | 99 µg/mL | 0.097 µg/mL
10 | O=C(NC(Cc1ccc(O)cc1)C(=O)Nc1ccccc1N1CCOCC1)c1cccs1 (stereo not drawn) [IX-183, N-(3-(4-hydroxyphenyl)-1-((2-morpholinophenyl)amino)-1-oxopropan-2-yl)thiophene-2-carboxamide] | 6.25 µg/mL (≈ 13.8 µM) | 1.56 µg/mL (≈ 3.45 µM) | >100 µg/mL | 0.097 µg/mL (≈ 0.215 µM)
11 | Cc1ccc(F)cc1NC(=O)C(Cc1ccc(O)cc1)NC(=O)c1ccccc1F (stereo not drawn) [IX-184, 2-fluoro-N-(1-((5-fluoro-2-methylphenyl)amino)-3-(4-hydroxy-phenyl)-1-oxopropan-2-yl)benzamide] | 3.12 µg/mL (≈ 7.61 µM) | 1.56 µg/mL (≈ 3.8 µM) | 77 µg/mL | 0.39 µg/mL (≈ 0.95 µM)
12 | Cc1ccc(F)cc1NC(=O)C(Cc1ccc(O)cc1)NC(=O)c1ccccc1C (stereo not drawn) [IX-186, N-(1-((5-fluoro-2-methylphenyl)amino)-3-(4-hydroxyphenyl)-1-oxopropan-2-yl)-2-methylbenzamide] | 3.12 µg/mL (≈ 7.69 µM) | 1.56 µg/mL (≈ 3.84 µM) | 78 µg/mL | 0.39 µg/mL (≈ 0.96 µM)
13 | Cc1ccc(F)cc1NC(=O)C(Cc1ccc(O)cc1)NC(=O)c1cccs1 (stereo not drawn) [IX-188, N-(1-((5-fluoro-2-methylphenyl)amino)-3-(4-hydroxyphenyl)-1-oxopropan-2-yl)thiophene-2-carboxamide] | 1.56 µg/mL (≈ 3.92 µM) | 1.56 µg/mL (≈ 3.92 µM) | 48 µg/mL | 0.097 µg/mL (≈ 0.243 µM)
14 | Cc1ccccc1C(=O)NC(Cc1ccccc1)C(=O)Nc1cccc2[nH]ncc12 (stereo not drawn) [IX-191, N-(1-((1H-indazol-4-yl)amino)-1-oxo-3-phenylpropan-2-yl)-2-methyl-benzamide] | 12.5 µg/mL (≈ 31.4 µM) | 12.5 µg/mL (≈ 31.4 µM) | >100 µg/mL | 0.39 µg/mL (≈ 0.979 µM)
15 | O=C(NC(Cc1ccccc1)C(=O)Nc1cccc2[nH]ncc12)c1cccs1 (stereo not drawn) [IX-201, N-(1-((1H-indazol-4-yl)amino)-1-oxo-3-phenylpropan-2-yl)thiophene-2-carboxamide] | 12.5 µg/mL (≈ 32 µM) | 25 µg/mL (≈ 64 µM) | 47 µg/mL | 0.09 µg/mL (≈ 0.23 µM)
16 | COc1ccc(F)cc1NC(=O)C(Cc1ccc(O)cc1)NC(=O)c1ccccc1 (stereo not drawn) [IX-203, N-(1-((5-fluoro-2-methoxyphenyl)amino)-3-(4-hydroxyphenyl)-1-oxopropan-2-yl)benzamide] | 0.78 µg/mL (≈ 1.91 µM) | 0.78 µg/mL (≈ 1.91 µM) | >100 µg/mL | 0.195 µg/mL (≈ 0.477 µM)
17 | COc1ccc(F)cc1NC(=O)C(Cc1ccc(O)cc1)NC(=O)c1ccccc1C (stereo not drawn) [IX-205, N-(1-((5-fluoro-2-methoxyphenyl)amino)-3-(4-hydroxyphenyl)-1-oxopropan-2-yl)-2-methylbenzamide] | 0.78 µg/mL (≈ 1.85 µM) | 0.78 µg/mL (≈ 1.85 µM) | 70 µg/mL | 0.39 µg/mL (≈ 0.923 µM)
18 | COc1ccc(F)cc1NC(=O)C(Cc1ccc(O)cc1)NC(=O)c1cccs1 (stereo not drawn) [IX-206, N-(1-((5-fluoro-2-methoxyphenyl)amino)-3-(4-hydroxyphenyl)-1-oxopropan-2-yl)thiophene-2-carboxamide] | 0.39 µg/mL (≈ 0.941 µM) | 0.78 µg/mL (≈ 1.88 µM) | 70 µg/mL | 0.195 µg/mL (≈ 0.47 µM)
19 | O=C(NC(Cc1ccc(O)cc1)C(=O)Nc1ccccc1N1CCNCC1)c1cccs1 (stereo not drawn) [IX-219, N-(3-(4-hydroxyphenyl)-1-oxo-1-((2-(piperazin-1-yl)phenyl)amino)-propan-2-yl)thiophene-2-carboxamide] | 3.12 µg/mL (≈ 6.94 µM) | 1.56 µg/mL (≈ 3.46 µM) | 69 µg/mL | 0.78 µg/mL (≈ 1.73 µM)
20 | O=C(NC(Cc1ccc(O)cc1)C(=O)Nc1cc(F)ccc1N1CCNCC1)c1cccs1 (stereo not drawn) [IX-222, N-(1-((5-fluoro-2-(piperazin-1-yl)phenyl)amino)-3-(4-hydroxyphen-yl)-1-oxopropan-2-yl)thiophene-2-carboxamide] | 1.56 µg/mL (≈ 3.33 µM) | 1.56 µg/mL (≈ 3.33 µM) | 38 µg/mL | 0.78 µg/mL (≈ 1.66 µM)
21 | O=C(NC(Cc1ccccc1)C(=O)Nc1cccc2[nH]nnc12)c1ccccc1 (stereo not drawn) [IX-223, N-(1-((1H-benzo[d][1,2,3]triazol-4-yl)amino)-1-oxo-3-phenylpropan-2-yl)benzamide] | 50 µg/mL (≈ 130 µM) | 25 µg/mL (≈ 64.9 µM) | 64 µg/mL | 0.78 µg/mL (≈ 2.02 µM)
